Test results as given in the supplement of paper PMC10307832.

Tests used:
Experiment in all cases: relative viability (nuclei count vs DMSO), 5 days (fraction); higher = more cells survive
[1] = compound: CC(C)C[C@H](NC(=O)[C@H](CCc1ccccc1)NC(=O)CN1CCOCC1)C(=O)N[C@@H](Cc1ccccc1)C(=O)N[C@@H](CC(C)C)C(=O)[C@@]1(C)CO1 [Carfilzomib] + CC(=O)c1c(C)c2cnc(Nc3ccc(N4CCNCC4)cn3)nc2n(C2CCCC2)c1=O [Palbociclib] (partner 0.5 µM)
How it was run: (§1)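 Relative viability divides the nuclei count in treated wells by that in vehicle wells. Lung cancer cell lines were seeded in 1536-well plates, dosed by pin tool the next day, and fixed and stained after 5 days in one step with final 0.05% Triton X-100, 1% formaldehyde and 1 ug/ml Hoechst. Dosing was a single drug or a fixed anchor-drug dose plus five library-drug doses (not always all listed) in √10 steps, and values are medians of duplicate plates imaged at 4×.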

Carfilzomib + Luminespib = compound: CC(C)C[C@H](NC(=O)[C@H](CCc1ccccc1)NC(=O)CN1CCOCC1)C(=O)N[C@@H](Cc1ccccc1)C(=O)N[C@@H](CC(C)C)C(=O)[C@@]1(C)CO1 [Carfilzomib] + CCNC(=O)c1noc(-c2cc(C(C)C)c(O)cc2O)c1-c1ccc(CN2CCOCC2)cc1 [Luminespib] (partner 0.01 µM)
How it was run: as §1

Crizotinib + Alpelisib = compound: C[C@@H](Oc1cc(-c2cnn(C3CCNCC3)c2)cnc1N)c1c(Cl)ccc(F)c1Cl [Crizotinib] + Cc1nc(NC(=O)N2CCC[C@H]2C(N)=O)sc1-c1ccnc(C(C)(C)C(F)(F)F)c1 [Alpelisib] (partner 2 µM)
How it was run: as §1

Crizotinib + AZD7762 = compound: C[C@@H](Oc1cc(-c2cnn(C3CCNCC3)c2)cnc1N)c1c(Cl)ccc(F)c1Cl [Crizotinib] + NC(=O)Nc1cc(-c2cccc(F)c2)sc1C(=O)N[C@H]1CCCNC1 [AZD7762] (partner 0.2 µM)
How it was run: as §1

Cell Line	relative viability ([1]; first compound 0.001 µM)	relative viability ([1]; first compound 0.003162 µM)	relative viability ([1]; first compound 0.01 µM)	relative viability ([1]; first compound 0.03162 µM)	relative viability ([1]; first compound 0.1 µM)	relative viability (Carfilzomib + Luminespib; first compound 0.001 µM)	relative viability (Carfilzomib + Luminespib; first compound 0.003162 µM)	relative viability (Carfilzomib + Luminespib; first compound 0.01 µM)	relative viability (Carfilzomib + Luminespib; first compound 0.03162 µM)	relative viability (Carfilzomib + Luminespib; first compound 0.1 µM)	relative viability (Crizotinib + Alpelisib; first compound 0.01 µM)	relative viability (Crizotinib + Alpelisib; first compound 0.03162 µM)	relative viability (Crizotinib + Alpelisib; first compound 0.1 µM)	relative viability (Crizotinib + Alpelisib; first compound 1 µM)	relative viability (Crizotinib + AZD7762; first compound 0.01 µM)	relative viability (Crizotinib + AZD7762; first compound 0.03162 µM)	relative viability (Crizotinib + AZD7762; first compound 0.1 µM)	relative viability (Crizotinib + AZD7762; first compound 0.3162 µM)	relative viability (Crizotinib + AZD7762; first compound 1 µM)	relative viability (Crizotinib + Alpelisib; first compound 0.3162 µM)
NCI-H441	0.217	0.219	0.178	0.0969	0.155	0.303	0.308	0.318	0.208	0.173	0.795	0.648	0.859	0.711	0.998	1.03	1.12	1.09	1.21	–
NCI-H322M	0.487	0.475	0.543	0.522	0.37	0.719	0.951	0.849	0.713	0.291	0.791	–	0.773	0.789	–	0.575	0.609	0.547	0.584	0.916
HCC-827	0.499	0.459	0.72	0.459	0.159	0.344	0.635	0.625	0.721	0.281	0.896	0.944	0.938	–	0.236	0.201	0.184	0.174	0.217	0.859
NCI-H1651	0.521	0.549	0.485	0.151	0.0991	0.766	0.913	0.916	0.2	0.12	0.823	0.933	0.858	0.965	0.438	0.472	0.409	0.483	0.463	–
EKVX	0.369	0.474	0.427	–	0.137	0.887	0.907	0.886	0.788	0.39	0.849	0.967	0.792	0.864	0.67	0.742	0.647	0.685	0.726	0.905
201T	0.355	0.357	0.383	0.345	0.31	0.999	1.15	1.07	1.02	0.915	–	–	1.03	1.06	0.6	0.628	0.558	0.575	0.716	1.04
NCI-H1975	0.364	0.635	0.472	0.119	0.107	0.2	0.185	0.261	0.167	0.16	0.682	0.683	0.673	0.68	0.641	0.784	0.771	0.684	0.636	0.689
NCI-H2347	0.463	0.427	0.438	0.382	0.332	0.509	–	0.266	0.346	0.201	1.04	1.03	1.03	0.996	0.773	0.663	0.772	0.582	0.884	0.978
PC-14	0.558	0.597	0.437	0.05	0.0508	0.143	0.176	0.18	0.117	0.109	0.914	0.921	0.931	0.911	0.342	0.392	0.401	0.355	0.382	0.845
LK-2	0.661	0.659	0.846	0.116	0.106	0.221	0.203	0.175	0.17	0.168	1.14	0.885	0.898	1.14	0.533	0.293	0.341	0.204	0.398	1.3
NCI-H358	0.139	0.117	0.114	0.0724	0.0923	0.295	0.456	0.378	0.281	0.118	0.81	0.802	0.798	0.759	–	0.533	0.469	0.458	0.492	0.852
ABC-1	0.831	0.736	0.441	0.273	0.253	0.581	1.35	0.246	0.193	0.141	0.964	1.15	1.22	0.976	0.902	0.848	0.695	0.671	1.34	1.02
NCI-H838	0.209	0.226	0.268	0.193	0.102	0.27	0.255	0.301	0.19	0.13	0.997	–	1.03	0.964	0.975	0.919	0.969	0.9	0.974	–
NCI-H2126	0.374	0.372	0.337	0.346	0.278	0.875	0.999	0.938	0.744	0.465	0.719	0.782	0.714	0.79	0.928	1.09	1.02	0.903	1.04	0.708
